# Measured values: US20230085307A1, “PYRIDAZINONE COMPOUND AND HERBICIDE” (NISSAN CHEMICAL CORPORATION, priority 2019, published 2023)
# What was measured:
# late watergrass [1] = assay: Test Example 1: herbicidal activity, application before weed generation under submerged conditions (Table 16, symbol A); type: in vivo, late watergrass (Echinochloa oryzicola); conditions: amount of applied herbicide 320 g/ha
# Procedure, shortened: (§1)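 Submerged Wagner pots (alluvial soil, 4 cm water) sown with weed seeds and planted with 2.5-leaf rice seedlings; emulsifiable concentrate diluted in water applied to water surface on sowing day. Held in greenhouse at 25-30 °C; injury scored 0-5 by herbicidal rate after three weeks.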
# Japanese bulrush [2] = assay: Test Example 1: herbicidal activity, application before weed generation under submerged conditions (Table 16, symbol B); type: in vivo, Japanese bulrush (Schoenoplectus juncoides); conditions: amount of applied herbicide 320 g/ha
# Procedure, shortened: as §1
# oval-leafed pondweed [3] = assay: Test Example 1: herbicidal activity, application before weed generation under submerged conditions (Table 16, symbol C); type: in vivo, oval-leafed pondweed (Monochoria vaginalis); conditions: amount of applied herbicide 320 g/ha
# Procedure, shortened: as §1
# late watergrass [4] = assay: Test Example 2: herbicidal activity, application during weed generation under submerged conditions (Table 17, symbol A); type: in vivo, late watergrass (Echinochloa oryzicola); conditions: AAH 320 g/ha; application during weed generation, submerged conditions
# Procedure, shortened: (§2)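 Wagner pot, alluvial soil, 4 cm flood; mixed sowing of all species; greenhouse 25° C.–30° C. Emulsifiable formulation, water-diluted to predetermined dose, applied to paddy water at 1–2 leaf stage. Effect rated at 3 wk using the earlier test's scoring criteria.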
# Japanese bulrush [5] = assay: Test Example 2: herbicidal activity, application during weed generation under submerged conditions (Table 17, symbol B); type: in vivo, Japanese bulrush (Schoenoplectus juncoides); conditions: AAH 320 g/ha; application during weed generation, submerged conditions
# Procedure, shortened: as §2
# oval-leafed pondweed [6] = assay: Test Example 2: herbicidal activity, application during weed generation under submerged conditions (Table 17, symbol C); type: in vivo, oval-leafed pondweed (Monochoria vaginalis); conditions: AAH 320 g/ha; application during weed generation, submerged conditions
# Procedure, shortened: as §2
# barnyard grass [7] = assay: Test Example 3: herbicidal effect by foliage application, Wagner pot (Table 18, symbol H); type: in vivo, barnyard grass (Echinochloa crus-galli); conditions: 320 g/ha
# Procedure, shortened: (§3)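 Plants were sown in alluvial soil held under 0.1–0.5 cm standing water and grown 14 days in a greenhouse at 25–30 °C. An emulsifiable formulation, water-diluted to the set dose, was then sprayed onto the foliage, and effects were scored three weeks later using previously defined criteria.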
# Chinese sprangletop = assay: Test Example 3: herbicidal effect by foliage application, Wagner pot (Table 18, symbol D); type: in vivo, chinese sprangletop (Leptochloa chinensis); conditions: 320 g/ha
# Procedure, shortened: as §3
# rice flat sedge = assay: Test Example 3: herbicidal effect by foliage application, Wagner pot (Table 18, symbol E); type: in vivo, rice flat sedge (Cyperus iria); conditions: 320 g/ha
# Procedure, shortened: as §3
# southern crabgrass = assay: Test Example 5: herbicidal effect by foliage application, plastic box (Table 20, symbol F); type: in vivo, southern crabgrass (Digitaria ciliaris); conditions: foliage application after 14-day growth, evaluated three weeks after application
# Procedure, shortened: (§4)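 Foliar spray test: emulsion formulation diluted in water to a set application rate, sprayed onto 14-day-old plants raised in diluvial soil at 25° C to 30° C under glass. Both herbicidal effect and crop effect rated visually three weeks later.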
# green foxtail = assay: Test Example 5: herbicidal effect by foliage application, plastic box (Table 20, symbol G); type: in vivo, green foxtail (Setaria viridis); conditions: foliage application after 14-day growth, evaluated three weeks after application
# Procedure, shortened: as §4
# barnyard grass [8] = assay: Test Example 5: herbicidal effect by foliage application, plastic box (Table 20, symbol H); type: in vivo, barnyard grass (Echinochloa crus-galli); conditions: foliage application after 14-day growth, evaluated three weeks after application
# Procedure, shortened: as §4
# wild oat = assay: Test Example 5: herbicidal effect by foliage application, plastic box (Table 20, symbol I); type: in vivo, wild oat (Avena fatua); conditions: foliage application after 14-day growth, evaluated three weeks after application
# Procedure, shortened: as §4
# blackgrass = assay: Test Example 5: herbicidal effect by foliage application, plastic box (Table 20, symbol J); type: in vivo, blackgrass (Alopecurus myosuroides); conditions: foliage application after 14-day growth, evaluated three weeks after application
# Procedure, shortened: as §4
# Italian ryegrass = assay: Test Example 5: herbicidal effect by foliage application, plastic box (Table 20, symbol K); type: in vivo, Italian ryegrass (Lolium multiflorum); conditions: foliage application after 14-day growth, evaluated three weeks after application
# Procedure, shortened: as §4
# windgrass = assay: Test Example 5: herbicidal effect by foliage application, plastic box (Table 20, symbol L); type: in vivo, windgrass (Apera spica-venti); conditions: foliage application after 14-day growth, evaluated three weeks after application
# Procedure, shortened: as §4
# velvetleaf = assay: Test Example 5: herbicidal effect by foliage application, plastic box (Table 20, symbol M); type: in vivo, velvetleaf (Abutilon theophrasti); conditions: foliage application after 14-day growth, evaluated three weeks after application
# Procedure, shortened: as §4
# redroot pigweed = assay: Test Example 5: herbicidal effect by foliage application, plastic box (Table 20, symbol N); type: in vivo, redroot pigweed (Amaranthus retroflexus); conditions: foliage application after 14-day growth, evaluated three weeks after application
# Procedure, shortened: as §4
# lambsquarters = assay: Test Example 5: herbicidal effect by foliage application, plastic box (Table 20, symbol O); type: in vivo, lambsquarters (Chenopodium album); conditions: foliage application after 14-day growth, evaluated three weeks after application
# Procedure, shortened: as §4
# chickweed = assay: Test Example 5: herbicidal effect by foliage application, plastic box (Table 20, symbol P); type: in vivo, common chickweed (Stellaria media); conditions: foliage application after 14-day growth, evaluated three weeks after application
# Procedure, shortened: as §4
# persian speedwell = assay: Test Example 5: herbicidal effect by foliage application, plastic box (Table 20, symbol R); type: in vivo, Persian speedwell (Veronica persica); conditions: foliage application after 14-day growth, evaluated three weeks after application
# Procedure, shortened: as §4
# [9] = amount of applied herbicide 320 g/ha
smiles,measurement,setting,value
CCCC(=O)Oc1c(C)nn(C)c(=O)c1-c1c(-c2ccc(Cl)cc2)sc2c(F)cccc12 [4-041],"Herbicidal effect, A: late watergrass",late watergrass [1],3 (Herbicidal rate of 40% or more and less than 70%)
same,"Herbicidal effect, B: Japanese bulrush",Japanese bulrush [2],0 (Herbicidal rate of 5% or less (almost no effect))
same,"Herbicidal effect, C: oval-leafed pondweed",oval-leafed pondweed [3],0 (Herbicidal rate of 5% or less (almost no effect))
same,"herbicidal effect rating, A: late watergrass",late watergrass [4],0 (Herbicidal rate of 5% or less (almost no effect))
same,"herbicidal effect rating, B: Japanese bulrush",Japanese bulrush [5],3 (Herbicidal rate of 40% or more and less than 70%)
same,"herbicidal effect rating, C: oval-leafed pondweed",oval-leafed pondweed [6],0 (Herbicidal rate of 5% or less (almost no effect))
same,herbicidal effect on barnyard grass (H),barnyard grass [7],5 (Herbicidal rate of 90% or more (almost completely withered))
same,herbicidal effect on Chinese sprangletop (D),Chinese sprangletop,4 (Herbicidal rate of 70% or more and less than 90%)
same,herbicidal effect on rice flat sedge (E),rice flat sedge,5 (Herbicidal rate of 90% or more (almost completely withered))
same,herbicidal effect on F: southern crabgrass (evaluation grade 0-5),southern crabgrass; 320 g/ha,0 (Herbicidal rate of 5% or less (almost no effect))
same,herbicidal effect on G: green foxtail (evaluation grade 0-5),green foxtail; 320 g/ha,3 (Herbicidal rate of 40% or more and less than 70%)
same,herbicidal effect on H: barnyard grass (evaluation grade 0-5),barnyard grass [8]; 320 g/ha,4 (Herbicidal rate of 70% or more and less than 90%)
same,herbicidal effect on I: wild oat (evaluation grade 0-5),wild oat; 320 g/ha,3 (Herbicidal rate of 40% or more and less than 70%)
same,herbicidal effect on J: blackgrass (evaluation grade 0-5),blackgrass; 320 g/ha,1 (Herbicidal rate of 5% or more and less than 20%)
same,herbicidal effect on K: Italian ryegrass (evaluation grade 0-5),Italian ryegrass; 320 g/ha,3 (Herbicidal rate of 40% or more and less than 70%)
same,herbicidal effect on L: windgrass (evaluation grade 0-5),windgrass; 320 g/ha,4 (Herbicidal rate of 70% or more and less than 90%)
same,herbicidal effect on M: velvetleaf (evaluation grade 0-5),velvetleaf; 320 g/ha,5 (Herbicidal rate of 90% or more (almost completely withered))
same,herbicidal effect on N: redroot pigweed (evaluation grade 0-5),redroot pigweed; 320 g/ha,5 (Herbicidal rate of 90% or more (almost completely withered))
same,herbicidal effect on O: lambsquarters (evaluation grade 0-5),lambsquarters; 320 g/ha,3 (Herbicidal rate of 40% or more and less than 70%)
same,herbicidal effect on P: chickweed (evaluation grade 0-5),chickweed; 320 g/ha,5 (Herbicidal rate of 90% or more (almost completely withered))
same,herbicidal effect on R: persian speedwell (evaluation grade 0-5),persian speedwell; 320 g/ha,5 (Herbicidal rate of 90% or more (almost completely withered))
Cc1nn(C)c(=O)c(-c2c(-c3ccc(OC4CCCCO4)cc3)sc3cc(F)c(F)cc23)c1O (stereo not drawn) [5-024],"Herbicidal effect, A: late watergrass",late watergrass [1],3 (Herbicidal rate of 40% or more and less than 70%)
same,"Herbicidal effect, B: Japanese bulrush",Japanese bulrush [2],0 (Herbicidal rate of 5% or less (almost no effect))
same,"Herbicidal effect, C: oval-leafed pondweed",oval-leafed pondweed [3],5 (Herbicidal rate of 90% or more (almost completely withered))
same,"herbicidal effect rating, A: late watergrass",late watergrass [4],0 (Herbicidal rate of 5% or less (almost no effect))
same,"herbicidal effect rating, B: Japanese bulrush",Japanese bulrush [5],2 (Herbicidal rate of 20% or more and less than 40%)
same,"herbicidal effect rating, C: oval-leafed pondweed",oval-leafed pondweed [6],0 (Herbicidal rate of 5% or less (almost no effect))
same,herbicidal effect on barnyard grass (H),barnyard grass [7],4 (Herbicidal rate of 70% or more and less than 90%)
same,herbicidal effect on Chinese sprangletop (D),Chinese sprangletop,3 (Herbicidal rate of 40% or more and less than 70%)
same,herbicidal effect on rice flat sedge (E),rice flat sedge,0 (Herbicidal rate of 5% or less (almost no effect))
same,"Herbicidal effect by foliage application, F: southern crabgrass",southern crabgrass; [9],4 (Herbicidal rate of 70% or more and less than 90%)
same,"Herbicidal effect by foliage application, G: green foxtail",green foxtail; [9],3 (Herbicidal rate of 40% or more and less than 70%)
same,"Herbicidal effect by foliage application, H: barnyard grass",barnyard grass [8]; [9],3 (Herbicidal rate of 40% or more and less than 70%)
same,"Herbicidal effect by foliage application, I: wild oat",wild oat; [9],0 (Herbicidal rate of 5% or less (almost no effect))
same,"Herbicidal effect by foliage application, J: blackgrass",blackgrass; [9],1 (Herbicidal rate of 5% or more and less than 20%)
same,"Herbicidal effect by foliage application, K: Italian ryegrass",Italian ryegrass; [9],0 (Herbicidal rate of 5% or less (almost no effect))
same,"Herbicidal effect by foliage application, L: windgrass",windgrass; [9],2 (Herbicidal rate of 20% or more and less than 40%)
same,"Herbicidal effect by foliage application, M: velvetleaf",velvetleaf; [9],3 (Herbicidal rate of 40% or more and less than 70%)
same,"Herbicidal effect by foliage application, N: redroot pigweed",redroot pigweed; [9],5 (Herbicidal rate of 90% or more (almost completely withered))
same,"Herbicidal effect by foliage application, O: lambsquarters",lambsquarters; [9],5 (Herbicidal rate of 90% or more (almost completely withered))
same,"Herbicidal effect by foliage application, P: chickweed",chickweed; [9],5 (Herbicidal rate of 90% or more (almost completely withered))
same,"Herbicidal effect by foliage application, R: persian speedwell",persian speedwell; [9],5 (Herbicidal rate of 90% or more (almost completely withered))
